This is an account of results in PubChem BioAssay AID1963982 (Molecular Pharmacology Branch, DTP, NCI, 2024).

The test system of this assay is 313798-341-R-J2-PDC spheroids, viability. Kind of assay: Anticancer human tumor 313798-341-R-J2-PDC patient-derived cervical squamous cell carcinoma cell line growth inhibition [PI3K]. The settings on record: spheroids with HUVEC and MSC; for viability, T/C: stronger effect = lower value. In outline: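 High-throughput combination screen: PI3K inhibitors crossed with targeted small molecules on complex spheroids of tumor cells, HUVEC and MSCs at 37 degrees C, 5% CO2. Top concentration was at or near clinical Cmax (otherwise 10 microM), with half-log decrements.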

Where [1] appears, read: curve of first compound, second compound 0.0316 µM.
Where [2] appears, read: curve of first compound, second compound 0.1 µM.
Setting [3] is: curve of first compound, second compound 0.316 µM.
Setting [4] is: curve of first compound, second compound 1 µM.
[5] abbreviates: second compound 0.0316 µM, first compound 0.0316 µM.
Setting [6] is: second compound 0.0316 µM, first compound 0.1 µM.
[7] abbreviates: second compound 0.0316 µM, first compound 0.316 µM.
Where [8] appears, read: second compound 0.0316 µM, first compound 1 µM.
[9] abbreviates: second compound 0.1 µM, first compound 0.0316 µM.
Setting [10] is: second compound 0.1 µM, first compound 0.1 µM.
The mark [11] stands for this setting: second compound 0.1 µM, first compound 0.316 µM.
[12] abbreviates: second compound 0.1 µM, first compound 1 µM.
The mark [13] stands for this setting: second compound 0.316 µM, first compound 0.0316 µM.
Setting [14] is: second compound 0.316 µM, first compound 0.1 µM.
Where [15] appears, read: second compound 0.316 µM, first compound 0.316 µM.
The mark [16] stands for this setting: second compound 0.316 µM, first compound 1 µM.
Where [17] appears, read: second compound 1 µM, first compound 0.0316 µM.
Where [18] appears, read: second compound 1 µM, first compound 0.1 µM.
The mark [19] stands for this setting: second compound 1 µM, first compound 0.316 µM.
Setting [20] is: second compound 1 µM, first compound 1 µM.
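Note: spheroids exposed to compounds for seven days.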
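Throughout, for viability, T/C: 100% = DMSO vehicle control viability.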

`C#Cc1c(F)ccc2cc(O)cc(-c3ncc4c(N5CC6CCC(C5)N6)nc(OCC56CCCN5CC(F)C6)nc4c3F)c12` (stereo unspecified): the viability, T/C (in general, the ratio of treated to control) runs as follows: (compound 0.0316 µM) 102% [middle of 4 runs]; (compound 0.1 µM) 105% [middle of 4 runs]; (compound 0.316 µM) 108% [middle of 4 runs]; (compound 1 µM) 98.5% [middle of 4 runs]; (compound 3.16 µM) 106% [middle of 4 runs]; (compound 10 µM) 95.2% [middle of 4 runs]. Besides, where the note is “curve of compound”, the half-maximal inhibitory concentration (IC50) (in general, the point on the concentration scale where inhibition reaches its midpoint) is greater than 10000 nM.

Consider `Cn1ncc(Cl)c1-c1cc(C(=O)NC(CN)Cc2cccc(F)c2)sc1Cl` (stereo unspecified) + CC(Nc1ncnc2nc[nH]c12)c1cc2cccc(Cl)c2c(=O)n1-c1ccccc1, for which the IC50 under setting [1] worked out at 777 nM; the IC50 under setting [2] turned out to be 984 nM; the IC50 under setting [3] came out at 1100 nM; the IC50 under setting [4] was 1080 nM; the IC50 (curve of first compound, second compound 3.16 µM) stood at 790 nM; the IC50 (curve of first compound, second compound 10 µM) was found to be 785 nM. The viability, T/C reads like this: under setting [5], 86.5%; under setting [6], 82.8%; under setting [7], 73.1%; under setting [8], 43.1%; (second compound 0.0316 µM, first compound 3.16 µM) 34.9%; (second compound 0.0316 µM, first compound 10 µM) 30.9%. In addition, the viability, T/C is 108% under setting [9]; 89.5% under setting [10]; 84.4% under setting [11]; 48.6% under setting [12]; 32.2% (second compound 0.1 µM, first compound 3.16 µM); 34.8% (second compound 0.1 µM, first compound 10 µM). Further, the viability, T/C is 97.5% under setting [13]; 92.8% under setting [14]; 70.8% under setting [15]; 54.9% under setting [16]; 32.2% (second compound 0.316 µM, first compound 3.16 µM); 30.9% (second compound 0.316 µM, first compound 10 µM). Also, the viability, T/C reads like this: under setting [17], 101%; under setting [18], 88.2%; under setting [19], 77.9%; under setting [20], 47.5%; (second compound 1 µM, first compound 3.16 µM) 38.8%; (second compound 1 µM, first compound 10 µM) 29%. The viability, T/C is, setting by setting: (second compound 3.16 µM, first compound 0.0316 µM) 107%; (second compound 3.16 µM, first compound 0.1 µM) 86.1%; (second compound 3.16 µM, first compound 0.316 µM) 62.4%; (second compound 3.16 µM, first compound 1 µM) 49.3%; (second compound 3.16 µM, first compound 3.16 µM) 32.5%; (second compound 3.16 µM, first compound 10 µM) 30.8%. Moreover, the viability, T/C is, setting by setting: (second compound 10 µM, first compound 0.0316 µM) 87%; (second compound 10 µM, first compound 0.1 µM) 78.1%; (second compound 10 µM, first compound 0.316 µM) 67.8%; (second compound 10 µM, first compound 1 µM) 46.5%; (second compound 10 µM, first compound 3.16 µM) 27.7%; (second compound 10 µM, first compound 10 µM) 25.8%.

Take `CC1(C)CCC(CN2CCN(c3ccc(C(=O)NS(=O)(=O)c4ccc(NCC5CCOCC5)c([N+](=O)[O-])c4)c(Oc4cnc5[nH]ccc5c4)c3)CC2)=C(c2ccc(Cl)cc2)C1`: the viability, T/C (compound 0.0316 µM) was 101% [middle of 4 runs]; the viability, T/C (compound 0.1 µM) is 97.8% [middle of 4 runs]; the viability, T/C (compound 0.316 µM) is 101% [middle of 4 runs]; the viability, T/C (compound 1 µM) is 94.4% [middle of 4 runs]; the viability, T/C (compound 3.16 µM) was 78.9% [middle of 4 runs].

Consider `CCN1CCN(Cc2ccc(Nc3ncc(F)c(-c4cc(F)c5nc(C)n(C(C)C)c5c4)n3)nc2)CC1` + CC(Nc1ccc2c(c1)OCCn1cc(N3C(=O)OCC3C(F)F)nc1-2)C(N)=O, for which the IC50 runs as follows: (curve of first compound, second compound 0.00316 µM) greater than 1000 nM; (curve of first compound, second compound 0.01 µM) greater than 1000 nM; under setting [1], greater than 1000 nM; under setting [2], greater than 1000 nM; under setting [3], greater than 1000 nM; under setting [4], greater than 1000 nM. Besides, the viability, T/C runs as follows: (second compound 0.00316 µM, first compound 0.00316 µM) 102%; (second compound 0.00316 µM, first compound 0.01 µM) 104%; (second compound 0.00316 µM, first compound 0.0316 µM) 99.3%; (second compound 0.00316 µM, first compound 0.1 µM) 105%; (second compound 0.00316 µM, first compound 0.316 µM) 123%; (second compound 0.00316 µM, first compound 1 µM) 131%. In addition, the viability, T/C runs as follows: (second compound 0.01 µM, first compound 0.00316 µM) 94.9%; (second compound 0.01 µM, first compound 0.01 µM) 102%; (second compound 0.01 µM, first compound 0.0316 µM) 96.8%; (second compound 0.01 µM, first compound 0.1 µM) 125%; (second compound 0.01 µM, first compound 0.316 µM) 138%; (second compound 0.01 µM, first compound 1 µM) 120%. The viability, T/C is, setting by setting: (second compound 0.0316 µM, first compound 0.00316 µM) 103%; (second compound 0.0316 µM, first compound 0.01 µM) 104%; under setting [5], 117%; under setting [6], 115%; under setting [7], 133%; under setting [8], 110%. Also, the viability, T/C (second compound 0.1 µM, first compound 0.00316 µM) is 115%; the viability, T/C (second compound 0.1 µM, first compound 0.01 µM) was 103%; the viability, T/C under setting [9] is 90.2%; the viability, T/C under setting [10] was 107%; the viability, T/C under setting [11] is 101%; the viability, T/C under setting [12] is 86.1%. The viability, T/C is, setting by setting: (second compound 0.316 µM, first compound 0.00316 µM) 86.1%; (second compound 0.316 µM, first compound 0.01 µM) 76.7%; under setting [13], 71.4%; under setting [14], 75.7%; under setting [15], 77.7%; under setting [16], 61.7%. The viability, T/C was 57.3% (second compound 1 µM, first compound 0.00316 µM); 48.3% (second compound 1 µM, first compound 0.01 µM); 52.3% under setting [17]; 56.8% under setting [18]; 52.7% under setting [19]; 58% under setting [20].
